Reference: patent US10183954B2, “Oxathiolane carboxylic acids and derivatives for the treatment and prophylaxis of virus infection” (Hoffmann-La Roche Inc., priority 2016, dated 2019)

Tested on: human hepatocytes
Test: Metabolic conversion of prodrugs in human hepatocytes
Format: in vitro ADME
Settings: not given
Description: Metabolism of Prodrugs: Compounds of Formula (II) A study was undertaken to evaluate the metabolic conversion of prodrugs, compounds of formula (II) or (IIa), to compounds of formula (I) or (Ia) of the present invention. The prodrugs, compounds of formula (II) or (IIa), can be metabolized to the active compound of formula (I) or (Ia) and other compounds of the invention in the body if they are served as prodrugs. Hepatocytes are often used to assess the degree of metabolic conversion of prodrugs in the body of animal or human. A study was undertaken to evaluate the metabolic conversion of prodrug Example 15, to the corresponding active form, Example 5-P1, in the presence of human hepatocytes. The formation of active form, Example 5-P1, was monitored in the study. For comparison, the metabolic conversion of famciclovir to penciclovir was also assessed. Cryopreserved hepatocytes plating medium (Cat.#: PY-HMD-03) was purchased from RILD Research Institute for Liver Diseases (Shanghai) Co. Ltd. Cryopreserved human hepatocyte (Cat.#: X008005, Lot#:VRR) was purchased from BioreclamationIVT (Baltimore, Md.). The stock hepatocyte suspension was prepared from cryopreserved hepatocytes in plating medium at the concentration of 1.8×10^6 cells/mL. […] The compounds were quantified on an API5500 […] instrument in the ESI-Positive MRM mode.

Compound | Metabolic conversion of prodrug to active metabolite
CC[C@H](OC(=O)c1ccccc1)[C@H]1O[C@@H](n2c(=O)sc3cnc(N)nc32)[C@H](CC(=O)OC)S1 [Example 15, [(1S)-1-[(2S,4S,5R)-5-(5-amino-2-oxo-thiazolo[4,5-d]pyrimidin-3-yl)-4-(2-methoxy-2-oxo-ethyl)-1,3-oxathiolan-2-yl]propyl]benzoate] | metabolized to yield the corresponding active metabolites
CC(=O)OCC(CCn1cnc2cnc(N)nc21)COC(C)=O [Famciclovir, famciclovir, reference compound] | metabolized to yield the corresponding active metabolites

Target: human TLR7 (Homo sapiens (Human), UniProt Q9NYK1)
Test: HEK293-Blue-hTLR-7 cells assay (SEAP reporter)
Format: cell-based
Settings: 20 hours incubation
Description: HEK293-Blue-hTLR-7 Cells Assay: A stable HEK293-Blue-hTLR-7 cell line was purchased from InvivoGen (Cat.#: hkb-htlr7, San Diego, Calif., USA). These cells were designed for studying the stimulation of human TLR7 by monitoring the activation of NF-κB. A SEAP (secreted embryonic alkaline phosphatase) reporter gene was placed under the control of the […] minimal promoter fused to five NF-κB and AP-1-binding sites. The SEAP was induced by activating NF-κB and AP-1 via stimulating HEK-Blue hTLR7 cells with TLR7 ligands. Therefore the reporter expression was regulated by the NF-κB promoter upon stimulation of human TLR7. The cell culture supernatant SEAP reporter activity was determined using QUANTI-Blue™ kit (Cat.#: rep-qb 1, Invivogen, San Diego, Ca, USA) at a wavelength of 640 nm, a detection medium that turns purple to blue in the presence of alkaline phosphatase. HEK293-Blue-hTLR7 cells were incubated at a density of 250,000˜450,000 cells/mL in a volume of 180 μL in a 96-well plate in Dulbecco's Modified Eagle's medium (DMEM) containing 4.5 g/l glucose, 50 U/ml penicillin, […], […], 2 mM L-glutamine, 10% (v/v) heat-inactivated fetal bovine serum for 24 h. Then the HEK293-Blue-hTLR-7 cells were incubated with addition of 20 μL test compound in a serial dilution in the presence of final DMSO at 1% and perform incubation under 37° C. in a CO2 incubator for 20 hours. Then 20 μL of the supernatant from each well was incubated with 180 μL Quanti-blue substrate solution at 37° C. for 1-3 hours and the absorbance was read at 620˜655 nm using a spectrophotometer.

human TLR7, sequence (Q9NYK1 27-1049): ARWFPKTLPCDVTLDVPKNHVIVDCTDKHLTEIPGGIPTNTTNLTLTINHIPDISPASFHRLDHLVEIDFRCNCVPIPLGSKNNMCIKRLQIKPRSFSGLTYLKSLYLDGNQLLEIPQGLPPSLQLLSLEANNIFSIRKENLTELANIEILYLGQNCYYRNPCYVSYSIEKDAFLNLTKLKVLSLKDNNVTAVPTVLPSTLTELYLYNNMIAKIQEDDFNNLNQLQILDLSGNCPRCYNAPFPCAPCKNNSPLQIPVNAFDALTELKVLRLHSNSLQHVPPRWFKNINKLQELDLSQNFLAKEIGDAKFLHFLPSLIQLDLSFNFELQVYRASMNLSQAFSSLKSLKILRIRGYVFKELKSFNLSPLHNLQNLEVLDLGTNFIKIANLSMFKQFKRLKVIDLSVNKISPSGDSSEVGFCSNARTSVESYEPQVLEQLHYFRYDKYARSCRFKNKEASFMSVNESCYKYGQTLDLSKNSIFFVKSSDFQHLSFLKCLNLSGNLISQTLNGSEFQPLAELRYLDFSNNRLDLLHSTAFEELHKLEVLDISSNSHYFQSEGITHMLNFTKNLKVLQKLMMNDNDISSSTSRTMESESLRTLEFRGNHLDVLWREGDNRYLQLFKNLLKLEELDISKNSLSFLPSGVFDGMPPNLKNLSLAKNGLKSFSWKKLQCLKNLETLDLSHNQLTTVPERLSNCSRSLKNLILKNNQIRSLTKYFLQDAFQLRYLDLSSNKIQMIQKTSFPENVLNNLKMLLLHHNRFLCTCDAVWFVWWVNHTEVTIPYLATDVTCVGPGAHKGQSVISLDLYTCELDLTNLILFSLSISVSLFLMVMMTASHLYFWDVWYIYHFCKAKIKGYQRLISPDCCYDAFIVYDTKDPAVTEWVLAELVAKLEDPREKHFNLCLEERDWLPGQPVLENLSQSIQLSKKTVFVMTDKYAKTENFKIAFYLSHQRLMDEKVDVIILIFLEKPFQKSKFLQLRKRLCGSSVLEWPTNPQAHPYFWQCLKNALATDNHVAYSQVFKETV

EC50 [µM] | Compound
13 | CC[C@H](O)[C@H]1O[C@@H](n2c(=O)sc3c(=O)[nH]c(N)nc32)[C@H](CC(=O)OC)S1 [Example 4-P1, methyl 2-[(2S,4S,5R)-5-(5-amino-2,7-dioxo-6H-thiazolo[4,5-d]pyrimidin-3-yl)-2-[(1S)-1-hydroxypropyl]-1,3-oxathiolan-4-yl]acetate]
15 | COC(=O)CC1SC([C@@H](O)C2CC2)OC1n1c(=O)sc2c(=O)[nH]c(N)nc21 (single isomer, unassigned) [Example 13-P3]
28 | CC[C@H](O)[C@H]1O[C@@H](n2c(=O)sc3c(=O)[nH]c(N)nc32)[C@H](CC(=O)N(C)C)S1 [Example 7-P1, 2-[(2S,4S,5R)-5-(5-amino-2,7-dioxo-6H-thiazolo[4,5-d]pyrimidin-3-yl)-2-[(1S)-1-hydroxypropyl]-1,3-oxathiolan-4-yl]-N,N-dimethyl-acetamide]
24 | CC[C@H](O)[C@H]1O[C@@H](n2c(=O)sc3c(=O)[nH]c(N)nc32)[C@H](CC(=O)O)S1 [Example 5-P1, 2-[(2S,4S,5R)-5-(5-amino-2,7-dioxo-6H-thiazolo[4,5-d]pyrimidin-3-yl)-2-[(1S)-1-hydroxypropyl]-1,3-oxathiolan-4-yl]acetic acid]
22 | COC(=O)CC1SC([C@H](C)O)OC1n1c(=O)sc2c(=O)[nH]c(N)nc21 (single isomer, unassigned) [Example 9-P3]
23 | CC[C@H](O)[C@H]1O[C@@H](n2c(=O)sc3c(=O)[nH]c(N)nc32)[C@H](CC(=O)NC)S1 [Example 6-P1, 2-[(2S,4S,5R)-5-(5-amino-2,7-dioxo-6H-thiazolo[4,5-d]pyrimidin-3-yl)-2-[(1S)-1-hydroxypropyl]-1,3-oxathiolan-4-yl]-N-methyl-acetamide]

Continued, molecule first:

Compound | EC50 [µM]
Nc1nc2c(sc(=O)n2[C@@H]2O[C@H](CO)S[C@H]2CC(=O)O)c(=O)[nH]1 (relative stereo) [Example 2-P1, 2-[(trans-2,4-trans-4,5)-5-(5-amino-2,7-dioxo-6H-thiazolo[4,5-d]pyrimidin-3-yl)-2-(hydroxymethyl)-1,3-oxathiolan-4-yl]acetic acid] | 144
CCCC[C@H](O)C1OC(n2c(=O)sc3c(=O)[nH]c(N)nc32)C(CC(=O)O)S1 (single isomer, unassigned) [Example 11-P3] | 321
C=CC[C@H](O)C1OC(n2c(=O)sc3c(=O)[nH]c(N)nc32)C(CC(=O)O)S1 (single isomer, unassigned) [Example 12-P3] | 42
COC(=O)CC1SC(CO)OC1n1c(=O)sc2c(=O)[nH]c(N)nc21 (stereo not drawn) [Example 1-P1, methyl 2-[(trans-2,4-trans-4,5)-5-(5-amino-2,7-dioxo-6H-thiazolo[4,5-d]pyrimidin-3-yl)-2-hydroxymethyl)-1,3-oxathiolan-4-yl]acetate] | 317
CC[C@H](O)[C@H]1O[C@@H](n2c(=O)sc3c(=O)[nH]c(N)nc32)[C@H](CC(=O)N2CCOCC2)S1 [Example 8-P1, 5-amino-3-[(2S,4S,5R)-2-[(1S)-1-hydroxypropyl]-4-(2-morpholino-2-oxo-ethyl)-1,3-oxathiolan-5-yl]-6H-thiazolo[4,5-d]pyrimidine-2,7-dione] | 2.5
C[C@H](O)C1OC(n2c(=O)sc3c(=O)[nH]c(N)nc32)C(CC(=O)O)S1 (single isomer, unassigned) [Example 10-P3] | 23
CN(C)C(=O)CC1SC(CO)OC1n1c(=O)sc2c(=O)[nH]c(N)nc21 (stereo not drawn) [Example 3-P1, 2-[(trans-2,4-trans-4,5)-5-(5-amino-2,7-dioxo-6H-thiazolo[4,5-d]pyrimidin-3-yl)-2-(hydroxymethyl)-1,3-oxathiolan-4-yl]-N,N-dimethyl-acetamide] | 469
Nc1nc2c(sc(=O)n2C2OC([C@@H](O)C3CC3)SC2CC(=O)O)c(=O)[nH]1 (single isomer, unassigned) [Example 14-P3] | 10
